Measured values: patent US8889370B2, “Method of determining inhibitors of coagulation” (Siemens Healthcare Diagnostics Products GmbH, priority 2010, dated 2014)
Where two headings read alike, the source gives them in different places.

Molecular target: T1, factor Xa (Homo sapiens, UniProt P00742)
T1 construct: an F Xa reagent consisting of a lyophilized plasma fraction containing factor Xa; purchased Siemens Healthcare Diagnostics (Berichrom heparin assay, F Xa reagent); host or cells: plasma fraction
Assay: Determination of the F Xa binding constant (Ki) of peptide aldehyde ligands, chromogenic assay with Berichrom heparin assay reagents, Dixon plot
Type: biochemical
Procedure: The kinetic data of the peptide aldehyde ligands were determined in chromogenic assay formats by measuring the rate of hydrolysis of chromogenic peptide substrates which compete with the peptide aldehyde ligands for binding to the active site of the particular enzyme, at various substrate concentrations and peptide aldehyde-ligand concentrations. The binding constant (Ki) was determined by a known method (Dixon, M., 1953, Biochem J, 55, 170-171).
The F Xa binding constant was determined using the reagents of the Berichrom® heparin assay from Siemens Healthcare Diagnostics. The Berichrom® heparin assay consists of: an F Xa reagent consisting of a lyophilized plasma fraction containing factor Xa, and additives such as Tris, NaCl, EDTA and preservatives, a chromogenic substrate reagent (Z-D-Leu-Gly-Arg-ANBA-methyl-amide), a dilution reagent for reconstitution, and a dextran sulfate reagent consisting of lyophilized dextran sulfate.
After reconstitution in 10 ml of dilution reagent, the dextran sulfate concentration is 0.02 g/l. The F Xa reagent is reconstituted with the reconstituted dextran sulfate reagent. The substrate reagent, after constitution with 2 ml of deionized water, contains 4 mmol/l Z-D-Leu-Gly-Arg-ANBA-methyl-amide. Dilutions of the substrate reagent were prepared with deionized water. The peptide aldehyde ligands prepared according to example 1 were dissolved in water and used as sample. The assays were carried out automatically in a BCS® XP coagulation analyzer (Siemens Healthcare Diagnostics, Marburg, Germany).
A reaction mix was mixed together as follows:
15 μl of sample (peptide aldehyde ligand B-r-G-R—H or B-f-P—R—H), […]
30 μl of substrate reagent (Z-D-Leu-Gly-Arg-ANBA-methyl-amide).
The reaction rate in mE/min was determined on the basis of the increase in optical density of the reaction mix at a wavelength of 405 nm. For this, the optical density of the reaction mixes was determined in a time interval from 10 to 70 seconds.

T1 sequence (P00742 235-488 limits assumed): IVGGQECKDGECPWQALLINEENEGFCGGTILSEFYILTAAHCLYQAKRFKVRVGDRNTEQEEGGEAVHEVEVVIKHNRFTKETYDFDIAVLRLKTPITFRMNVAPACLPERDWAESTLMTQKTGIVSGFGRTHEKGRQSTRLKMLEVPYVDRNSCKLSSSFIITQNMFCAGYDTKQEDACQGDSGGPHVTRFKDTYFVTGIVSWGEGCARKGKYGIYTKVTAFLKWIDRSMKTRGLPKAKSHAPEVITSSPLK
T1 sequence (P00742 41-179 partner limits assumed): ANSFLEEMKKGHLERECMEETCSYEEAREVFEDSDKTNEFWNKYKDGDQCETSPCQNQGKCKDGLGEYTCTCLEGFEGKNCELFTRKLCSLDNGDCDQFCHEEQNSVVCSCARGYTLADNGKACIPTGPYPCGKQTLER

Compound: N=C(N)NCCC[C@@H](C=O)NC(=O)[C@@H]1CCCN1C(=O)[C@@H](Cc1ccccc1)NC(=O)CCC(=O)NCCCOCCOCCOCCCNC(=O)CCCC[C@@H]1SC[C@@H]2NC(=O)N[C@@H]21 [B-f-P-R-H, biotinyl-Ttds-D-Phe-Pro-Arg-H]
- 1/Reaction rate (CB-f-P-R-H 0.01019 μM, Csubstrate = 0.5 mM): 5.617 min/E
- 1/Reaction rate (CB-f-P-R-H 0.01019 μM, Csubstrate = 2 mM): 1.457 min/E
- 1/Reaction rate (CB-f-P-R-H 0.01019 μM, Csubstrate = 4 mM): 0.8217 min/E
- 1/Reaction rate (CB-f-P-R-H 0.02038 μM, Csubstrate = 0.5 mM): 5.565 min/E
- 1/Reaction rate (CB-f-P-R-H 0.02038 μM, Csubstrate = 2 mM): 1.457 min/E
- 1/Reaction rate (CB-f-P-R-H 0.02038 μM, Csubstrate = 4 mM): 0.8192 min/E
- 1/Reaction rate (CB-f-P-R-H 0.04076 μM, Csubstrate = 0.5 mM): 5.569 min/E
- 1/Reaction rate (CB-f-P-R-H 0.04076 μM, Csubstrate = 2 mM): 1.454 min/E
- 1/Reaction rate (CB-f-P-R-H 0.04076 μM, Csubstrate = 4 mM): 0.8174 min/E
- 1/Reaction rate (CB-f-P-R-H 0.08152 μM, Csubstrate = 0.5 mM): 5.572 min/E
- 1/Reaction rate (CB-f-P-R-H 0.08152 μM, Csubstrate = 2 mM): 1.467 min/E
- 1/Reaction rate (CB-f-P-R-H 0.08152 μM, Csubstrate = 4 mM): 0.8218 min/E
- 1/Reaction rate (CB-f-P-R-H 0.10190 μM, Csubstrate = 0.5 mM): 5.619 min/E
- 1/Reaction rate (CB-f-P-R-H 0.10190 μM, Csubstrate = 2 mM): 1.463 min/E
- 1/Reaction rate (CB-f-P-R-H 0.10190 μM, Csubstrate = 4 mM): 0.8156 min/E
- 1/Reaction rate (CB-f-P-R-H 0.16304 μM, Csubstrate = 0.5 mM): 5.675 min/E
- 1/Reaction rate (CB-f-P-R-H 0.16304 μM, Csubstrate = 2 mM): 1.485 min/E
- 1/Reaction rate (CB-f-P-R-H 0.16304 μM, Csubstrate = 4 mM): 0.8333 min/E
- 1/Reaction rate (CB-f-P-R-H 0.20380 μM, Csubstrate = 0.5 mM): 5.619 min/E
- 1/Reaction rate (CB-f-P-R-H 0.20380 μM, Csubstrate = 2 mM): 1.473 min/E
- 1/Reaction rate (CB-f-P-R-H 0.20380 μM, Csubstrate = 4 mM): 0.8238 min/E
- 1/Reaction rate (CB-f-P-R-H 0.32609 μM, Csubstrate = 0.5 mM): 5.69 min/E
- 1/Reaction rate (CB-f-P-R-H 0.32609 μM, Csubstrate = 2 mM): 1.486 min/E
- 1/Reaction rate (CB-f-P-R-H 0.32609 μM, Csubstrate = 4 mM): 0.832 min/E
- 1/Reaction rate (CB-f-P-R-H 0.40761 μM, Csubstrate = 0.5 mM): 5.694 min/E
- 1/Reaction rate (CB-f-P-R-H 0.40761 μM, Csubstrate = 2 mM): 1.489 min/E
- 1/Reaction rate (CB-f-P-R-H 0.40761 μM, Csubstrate = 4 mM): 0.8338 min/E
- 1/Reaction rate (CB-f-P-R-H 0.65217 μM, Csubstrate = 0.5 mM): 5.785 min/E
- 1/Reaction rate (CB-f-P-R-H 0.65217 μM, Csubstrate = 2 mM): 1.51 min/E
- 1/Reaction rate (CB-f-P-R-H 0.65217 μM, Csubstrate = 4 mM): 0.8514 min/E
- 1/Reaction rate (CB-f-P-R-H 0.81522 μM, Csubstrate = 0.5 mM): 5.868 min/E
- 1/Reaction rate (CB-f-P-R-H 0.81522 μM, Csubstrate = 2 mM): 1.521 min/E
- 1/Reaction rate (CB-f-P-R-H 0.81522 μM, Csubstrate = 4 mM): 0.8494 min/E
- 1/Reaction rate (CB-f-P-R-H 1.30435 μM, Csubstrate = 0.5 mM): 5.959 min/E
- 1/Reaction rate (CB-f-P-R-H 1.30435 μM, Csubstrate = 2 mM): 1.562 min/E
- 1/Reaction rate (CB-f-P-R-H 1.30435 μM, Csubstrate = 4 mM): 0.8735 min/E
- 1/Reaction rate (CB-f-P-R-H 1.63043 μM, Csubstrate = 0.5 mM): 6.263 min/E
- 1/Reaction rate (CB-f-P-R-H 1.63043 μM, Csubstrate = 2 mM): 1.591 min/E
- 1/Reaction rate (CB-f-P-R-H 1.63043 μM, Csubstrate = 4 mM): 0.9021 min/E
- 1/Reaction rate (CB-f-P-R-H 2.60870 μM, Csubstrate = 0.5 mM): 6.441 min/E
- 1/Reaction rate (CB-f-P-R-H 2.60870 μM, Csubstrate = 2 mM): 1.672 min/E
- 1/Reaction rate (CB-f-P-R-H 2.60870 μM, Csubstrate = 4 mM): 0.9317 min/E
- 1/Reaction rate (CB-f-P-R-H 3.26087 μM, Csubstrate = 0.5 mM): 6.663 min/E
- 1/Reaction rate (CB-f-P-R-H 3.26087 μM, Csubstrate = 2 mM): 1.715 min/E
- 1/Reaction rate (CB-f-P-R-H 3.26087 μM, Csubstrate = 4 mM): 0.9448 min/E
- 1/Reaction rate (CB-f-P-R-H 4.89130 μM, Csubstrate = 0.5 mM): 7.084 min/E
- 1/Reaction rate (CB-f-P-R-H 4.89130 μM, Csubstrate = 2 mM): 1.84 min/E
- 1/Reaction rate (CB-f-P-R-H 4.89130 μM, Csubstrate = 4 mM): 1.026 min/E
- 1/Reaction rate (CB-f-P-R-H 6.52174 μM, Csubstrate = 0.5 mM): 7.613 min/E
- 1/Reaction rate (CB-f-P-R-H 6.52174 μM, Csubstrate = 2 mM): 1.979 min/E
- 1/Reaction rate (CB-f-P-R-H 6.52174 μM, Csubstrate = 4 mM): 1.106 min/E
- 1/Reaction rate (CB-f-P-R-H 8.15217 μM, Csubstrate = 0.5 mM): 8.377 min/E
- 1/Reaction rate (CB-f-P-R-H 8.15217 μM, Csubstrate = 2 mM): 2.149 min/E
- 1/Reaction rate (CB-f-P-R-H 8.15217 μM, Csubstrate = 4 mM): 1.173 min/E
- 1/Reaction rate (CB-f-P-R-H 13.04348 μM, Csubstrate = 0.5 mM): 9.739 min/E
- 1/Reaction rate (CB-f-P-R-H 13.04348 μM, Csubstrate = 2 mM): 2.499 min/E
- 1/Reaction rate (CB-f-P-R-H 13.04348 μM, Csubstrate = 4 mM): 1.359 min/E
- Intersect of regression curve 1/reaction rate vs ligand concentration (Csubstrate 0.5 mM): 5.5934 min/E
- Slope of regression curve 1/reaction rate vs ligand concentration (Csubstrate 0.5 mM): 0.3216 min/E μM
- Intersect of regression curve 1/reaction rate vs ligand concentration (Csubstrate 2 mM): 1.4588 min/E
- Slope of regression curve 1/reaction rate vs ligand concentration (Csubstrate 2 mM): 0.0806 min/E μM
- Intersect of regression curve 1/reaction rate vs ligand concentration (Csubstrate 4 mM): 0.8202 min/E
- Slope of regression curve 1/reaction rate vs ligand concentration (Csubstrate 4 mM): 0.0421 min/E μM
- Ki (average of three Ki values, read-out: KiM average F Xa binding constant): 16.9 µM
- Ki (intersection of regression curves Csubstrate 2 and 0.5 mM, read-out: Ki2&3 F Xa binding constant): 17.2 µM
- Ki (intersection of regression curves Csubstrate 4 and 0.5 mM, read-out: Ki1&3 F Xa binding constant): 17.1 µM
- Ki (intersection of regression curves Csubstrate 4 and 2 mM, read-out: Ki1&2 F Xa binding constant): 16.6 µM
- binding of the peptide aldehyde with F Xa (reversible or irreversible) (intersections of regression curves not on the x axis): reversible
